Test results: patent publication US20260217735A1, “HETEROCYCLES AND USES THEREOF” (Kumquat Biosciences Inc., priority 2023, published 2026)

Key:
[1] = molecular target: T1, KRAS G12D (Homo sapiens, UniProt P01116, G12D); assay: HTRF assay, KRAS G12D interaction with SOS1; assay type: biochemical; conditions: bins <500 nM / 500 nM to 1000 nM, read-out: Inhibition of KRAS G12D (IC50)
T1 construct: made in house; host or cells: E. coli, e.g. BL21 (DE3)

[2] = molecular target: T2, KRAS G12V (Homo sapiens, UniProt P01116, G12V); assay: HTRF assay, KRAS G12V interaction with SOS1; assay type: biochemical; conditions: bins <500 nM / 500 nM to 1000 nM, read-out: Inhibition of KRAS G12V (IC50)
T2 construct: made in house; host or cells: E. coli, e.g. BL21 (DE3)

[3] = molecular target: T3, KRAS WT (Homo sapiens, UniProt P01116); assay: HTRF assay, wildtype KRAS interaction with SOS1; assay type: biochemical; conditions: bins <500 nM / 500 nM to 1000 nM, read-out: Inhibition of KRAS WT (IC50)
T3 construct: made in house; host or cells: E. coli, e.g. BL21 (DE3)

[4] = test system: MiaPaca2 cells; assay: Ras cellular assay, growth of cells with K-Ras G12C mutation; assay type: cell-based; conditions: Homo sapiens, MIA PaCa-2; cell proliferation assay; bins ≤500 nM / >500 nM; read-out: Inhibition of MiaPaca2 Cells (IC50)
In short: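 MIA PaCa-2 cells (K-Ras G12C, about 125-150 cells/well) grown in 0.25% soft agar over a 0.6% agar base, compound added on day 2 at 0.3% final DMSO. Growth read on day 10 by Cell Titer 96 AQueous absorbance (490 nm, reference 660 nm) against time-zero wells; IC50 from four-parameter fit.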

[5] = molecular target: T4, KRAS G12S (Homo sapiens, UniProt P01116, G12S); assay: HTRF assay, KRAS G12S interaction with SOS1; assay type: biochemical; conditions: bins <500 nM / 500 nM to 1000 nM, read-out: Inhibition of KRAS G12S (IC50)
T4 construct: made in house; host or cells: E. coli, e.g. BL21 (DE3)
T4 sequence (P01116 1-188 isoform P01116-2 G12S): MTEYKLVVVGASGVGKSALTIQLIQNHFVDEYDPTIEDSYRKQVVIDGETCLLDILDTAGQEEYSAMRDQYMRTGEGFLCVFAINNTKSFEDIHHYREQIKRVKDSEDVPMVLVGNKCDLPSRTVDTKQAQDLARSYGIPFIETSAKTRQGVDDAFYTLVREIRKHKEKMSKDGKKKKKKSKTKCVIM

T2 sequence (P01116 1-188 isoform P01116-2 G12V): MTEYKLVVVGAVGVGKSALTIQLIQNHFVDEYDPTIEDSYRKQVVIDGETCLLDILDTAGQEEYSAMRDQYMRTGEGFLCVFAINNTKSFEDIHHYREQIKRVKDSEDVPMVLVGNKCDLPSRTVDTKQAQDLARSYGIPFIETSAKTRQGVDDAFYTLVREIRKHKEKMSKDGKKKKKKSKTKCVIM
T1 sequence (P01116 1-188 isoform P01116-2 G12D): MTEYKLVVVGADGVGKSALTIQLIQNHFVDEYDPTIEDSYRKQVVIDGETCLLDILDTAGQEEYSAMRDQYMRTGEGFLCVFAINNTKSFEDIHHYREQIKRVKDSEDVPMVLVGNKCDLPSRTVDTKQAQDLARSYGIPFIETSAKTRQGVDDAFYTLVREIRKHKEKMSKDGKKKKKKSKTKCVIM
T3 sequence (P01116 1-188 isoform P01116-2): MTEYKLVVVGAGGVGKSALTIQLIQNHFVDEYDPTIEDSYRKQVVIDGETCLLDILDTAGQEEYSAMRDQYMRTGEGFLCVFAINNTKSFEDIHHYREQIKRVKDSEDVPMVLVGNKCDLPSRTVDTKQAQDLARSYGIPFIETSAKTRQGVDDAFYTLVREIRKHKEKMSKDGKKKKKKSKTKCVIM

| Structure (SMILES) | IC50 [1] | IC50 [2] | IC50 [3] | IC50 [4] | IC50 [5] |
| --- | --- | --- | --- | --- | --- |
| CCN(c1nc(OCC2(CN3CC4CCC(C3)O4)CC2)nc2c(F)c(-c3ccc(F)c4sc(N)c(C#N)c34)c(C(F)(F)F)cc12)[C@@H]1CCN(C(=O)n2cnc(Cl)n2)[C@@H]1C [Compound 204, (4S)-4-(2-((1-((8-oxa-3-azabicyclo[3.2.1]octan-3-yl)methyl)cyclopropyl)methoxy)-4-(((2R,3R)-1-(3-chloro-1H-1,2,4-triazole-1-carbonyl)-2-methylpyrrolidin-3-yl)(ethyl)amino)-8-fluoro-6-(trifluoromethyl)quinazolin-7-yl)-2-amino-7-fluorobenzo[b]thiophene-3-carbonitrile] | < 500 nM | < 500 nM | < 500 nM | ≤ 500 nM | < 500 nM |
| C[C@@H]1[C@H](N(C)c2nc(OC[C@@]34CCCN3C[C@H](F)C4)nc3c(F)c(-c4ccc(F)c5sc(N)c(C#N)c45)c(Cl)cc23)CCN1C(=O)n1ccc(C#N)c1 [Compound 205, 1-((2R,3R)-3-((7-(2-amino-3-cyano-7-fluorobenzo[b]thiophen-4-yl)-6-chloro-8-fluoro-2-(((2R,7aS)-2-fluorotetrahydro-1H-pyrrolizin-7a(5H)-yl)methoxy)quinazolin-4-yl)(methyl)amino)-2-methylpyrrolidine-1-carbonyl)-1H-pyrrole-3-carbonitrile] | < 500 nM | < 500 nM | < 500 nM | ≤ 500 nM | < 500 nM |
| CCN(c1nc(OC[C@@]23CCCN2C[C@H](F)C3)nc2c(F)c(-c3cc(N)c(F)c(C)c3C(F)(F)F)ncc12)[C@@H]1CCN(C(=O)n2cnc(Cl)n2)[C@@H]1C [Compound 208, ((2R,3R)-3-((7-(5-amino-4-fluoro-3-methyl-2-(trifluoromethyl)phenyl)-8-fluoro-2-(((2R,7aS)-2-fluorotetrahydro-1H-pyrrolizin-7a(5H)-yl)methoxy)pyrido[4,3-d]pyrimidin-4-yl)(ethyl)amino)-2-methylpyrrolidin-1-yl)(3-chloro-1H-1,2,4-triazol-1-yl)methanone] | < 500 nM | < 500 nM | 500 to 1000 nM | ≤ 500 nM | < 500 nM |
| Cc1cn(C(=O)N2C[C@]3(CC[C@H](C)N(c4nc(OC[C@@]56CCCN5C[C@H](F)C6)nc5c(F)c(-c6ccc(F)c7sc(N)c(C#N)c67)c(Cl)cc45)C3)[C@H]2C2(C)CC2)cn1 [Compound 210, 2-amino-4-(6-chloro-8-fluoro-2-(((2R,7aS)-2-fluorotetrahydro-1H-pyrrolizin-7a(5H)-yl)methoxy)-4-((1R,4R,7S)-7-methyl-2-(4-methyl-1H-imidazole-1-carbonyl)-1-(1-methylcyclopropyl)-2,6-diazaspiro[3.5]nonan-6-yl)quinazolin-7-yl)-7-fluorobenzo[b]thiophene-3-carbonitrile] | < 500 nM | < 500 nM | < 500 nM | ≤ 500 nM | < 500 nM |
| C[C@@H]1[C@H](N(C)c2nc(OC[C@@]34CCCN3C[C@H](F)C4)nc3c(F)c(-c4ccc(F)c5sc(N)c(C#N)c45)c(Cl)cc23)CCN1C(=O)n1cnc(Cl)c1 [Compound 211, 2-amino-4-(6-chloro-4-(((2R,3R)-1-(4-chloro-1H-imidazole-1-carbonyl)-2-methylpyrrolidin-3-yl)(methyl)amino)-8-fluoro-2-(((2R,7aS)-2-fluorotetrahydro-1H-pyrrolizin-7a(5H)-yl)methoxy)quinazolin-7-yl)-7-fluorobenzo[b]thiophene-3-carbonitrile] | < 500 nM | < 500 nM | < 500 nM | ≤ 500 nM | < 500 nM |
| CCN(c1nc(OC[C@@]23CCCN2C[C@@]2(CC2(F)F)C3)nc2c(F)c(-c3ccc(F)c4sc(N)c(C#N)c34)c(C(F)(F)F)cc12)[C@@H]1CCN(C(=O)n2cnc(F)n2)[C@@H]1C [Compound 212, 2-amino-4-(2-(((1S,7a′S)-2,2-difluorodihydro-1′H,3′H-spiro[cyclopropane-1,2′-pyrrolizin]-7a′(5′H)-yl)methoxy)-4-(ethyl((2R,3R)-1-(3-fluoro-1H-1,2,4-triazole-1-carbonyl)-2-methylpyrrolidin-3-yl)amino)-8-fluoro-6-(trifluoromethyl)quinazolin-7-yl)-7-fluorobenzo[b]thiophene-3-carbonitrile] | < 500 nM | < 500 nM | < 500 nM | ≤ 500 nM | < 500 nM |
| CC(C)c1cn(C(=O)N2CC[C@@H](N(C)c3nc(OC[C@@]45CCCN4C[C@H](F)C5)nc4c(F)c(-c5ccc(F)c6sc(N)c(C#N)c56)c(Cl)cc34)[C@H]2C)cn1 [Compound 213, 2-amino-4-(6-chloro-8-fluoro-2-(((2R,7aS)-2-fluorotetrahydro-1H-pyrrolizin-7a(5H)-yl)methoxy)-4-(((2R,3R)-1-(4-isopropyl-1H-imidazole-1-carbonyl)-2-methylpyrrolidin-3-yl)(methyl)amino)quinazolin-7-yl)-7-fluorobenzo[b]thiophene-3-carbonitrile] | < 500 nM | < 500 nM | < 500 nM | ≤ 500 nM | < 500 nM |
| CC[C@H]1N(C(=O)n2cnc(C)c2C)C[C@]12CCCCN(c1nc(OC[C@@]34CCCN3C[C@H](F)C4)nc3c(F)c(-c4ccc(F)c5sc(N)c(C#N)c45)c(Cl)cc13)C2 [Compound 215, 2-amino-4-(6-chloro-4-((1R,4R)-2-(4,5-dimethyl-1H-imidazole-1-carbonyl)-1-ethyl-2,6-diazaspiro[3.6]decan-6-yl)-8-fluoro-2-(((2R,7aS)-2-fluorotetrahydro-1H-pyrrolizin-7a(5H)-yl)methoxy)quinazolin-7-yl)-7-fluorobenzo[b]thiophene-3-carbonitrile] | < 500 nM | < 500 nM | < 500 nM | ≤ 500 nM | < 500 nM |
| CC(C)[C@@H]1C[C@H](N(C)c2nc(OC[C@@]34CCCN3C[C@H](F)C4)nc3c(F)c(-c4ccc(F)c5sc(N)c(C#N)c45)c(Cl)cc23)CN1C(=O)n1cnc(Cl)n1 [Compound 216, 2-amino-4-(6-chloro-4-(((3S,5S)-1-(3-chloro-1H-1,2,4-triazole-1-carbonyl)-5-isopropylpyrrolidin-3-yl)(methyl)amino)-8-fluoro-2-(((2R,7aS)-2-fluorotetrahydro-1H-pyrrolizin-7a(5H)-yl)methoxy)quinazolin-7-yl)-7-fluorobenzo[b]thiophene-3-carbonitrile] | 500 to 1000 nM | < 500 nM | < 500 nM | > 500 nM | < 500 nM |
| CN(c1nc(OC[C@@]23CCCN2C[C@H](F)C3)nc2c(F)c(-c3ccc(F)c4sc(N)c(C#N)c34)c(Cl)cc12)[C@H]1CCN(C(=O)n2ccnc2)C1 [Compound 218, 4-(4-(((S)-1-(1H-imidazole-1-carbonyl)pyrrolidin-3-yl)(methyl)amino)-6-chloro-8-fluoro-2-(((2R,7aS)-2-fluorotetrahydro-1H-pyrrolizin-7a(5H)-yl)methoxy)quinazolin-7-yl)-2-amino-7-fluorobenzo[b]thiophene-3-carbonitrile] | < 500 nM | < 500 nM | < 500 nM | ≤ 500 nM | < 500 nM |
| C[C@@H]1[C@H](N(C)c2nc(OC[C@@]34CCCN3C[C@H](F)C4)nc3c(F)c(-c4ccc(F)c5sc(N)c(C#N)c45)c(Cl)cc23)CCN1C(=O)n1cc(C#N)cn1 [Compound 220, 1-((2R,3R)-3-((7-(2-amino-3-cyano-7-fluorobenzo[b]thiophen-4-yl)-6-chloro-8-fluoro-2-(((2R,7aS)-2-fluorotetrahydro-1H-pyrrolizin-7a(5H)-yl)methoxy)quinazolin-4-yl)(methyl)amino)-2-methylpyrrolidine-1-carbonyl)-1H-pyrazole-4-carbonitrile] | < 500 nM | < 500 nM | < 500 nM | ≤ 500 nM | < 500 nM |
